The values below come from patent EP3807270B1, “NOVEL HETEROARYL HETEROCYCLYL COMPOUNDS FOR THE TREATMENT OF AUTOIMMUNE DISEASE” (F. Hoffmann-La Roche AG, priority 2018, dated 2019).

The target in this test is T1, human TLR8 (Homo sapiens, UniProt Q9NR97).
T1 construct: host or cells: HEK293 (HEK-Blue)
T1 sequence (Q9NR97 27-1041): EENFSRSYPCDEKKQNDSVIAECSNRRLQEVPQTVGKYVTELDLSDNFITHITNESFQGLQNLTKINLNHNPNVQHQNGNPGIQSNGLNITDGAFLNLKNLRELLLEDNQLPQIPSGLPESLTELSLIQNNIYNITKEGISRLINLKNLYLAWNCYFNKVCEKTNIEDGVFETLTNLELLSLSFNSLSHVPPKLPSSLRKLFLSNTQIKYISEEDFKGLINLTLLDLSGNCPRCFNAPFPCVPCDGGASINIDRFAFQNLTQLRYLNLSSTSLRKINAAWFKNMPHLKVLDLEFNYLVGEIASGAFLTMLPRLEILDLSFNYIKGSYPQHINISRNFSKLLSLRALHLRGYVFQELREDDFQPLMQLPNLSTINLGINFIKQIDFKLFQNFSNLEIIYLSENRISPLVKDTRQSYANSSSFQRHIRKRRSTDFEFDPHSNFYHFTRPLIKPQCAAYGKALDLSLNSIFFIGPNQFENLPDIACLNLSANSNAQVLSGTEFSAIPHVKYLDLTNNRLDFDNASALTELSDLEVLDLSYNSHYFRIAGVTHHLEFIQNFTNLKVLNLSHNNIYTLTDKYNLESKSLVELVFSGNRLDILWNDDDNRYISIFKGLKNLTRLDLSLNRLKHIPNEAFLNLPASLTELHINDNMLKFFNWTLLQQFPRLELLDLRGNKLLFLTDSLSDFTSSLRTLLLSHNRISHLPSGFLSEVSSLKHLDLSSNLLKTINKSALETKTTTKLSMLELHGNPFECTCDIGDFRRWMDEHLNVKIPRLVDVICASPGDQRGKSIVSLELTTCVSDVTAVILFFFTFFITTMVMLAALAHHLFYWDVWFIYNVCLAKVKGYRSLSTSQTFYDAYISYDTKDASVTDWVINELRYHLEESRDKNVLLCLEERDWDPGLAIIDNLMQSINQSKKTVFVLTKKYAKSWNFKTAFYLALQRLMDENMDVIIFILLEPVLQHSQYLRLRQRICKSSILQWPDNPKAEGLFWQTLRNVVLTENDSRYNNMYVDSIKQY
Kind of test: HEK293-Blue-hTLR-8 cells assay (SEAP reporter, R848 stimulation). Format: cell-based. The following applies: HEK293-Blue-hTLR8 cells, R848, 20 hrs; read-out: HEK/hTLR8 IC50. An excerpt: A stable HEK293-Blue-hTLR-8 cell line was purchased from InvivoGen (Cat.#: hkb-htlr8, San Diego, California, USA). These cells were originally designed for studying the stimulation of human TLR8 by monitoring the activation of NF-κB. A SEAP (secreted embryonic alkaline phosphatase) reporter gene was placed under the control of the IFN-β minimal promoter fused to five NF-κB and AP-1-binding sites. The SEAP was induced by activating NF-κB and AP-1 via stimulating HEK-Blue hTLR8 cells with TLR8 ligands. Therefore, the reporter expression was declined by TLR8 antagonist under the stimulation of a ligand, such as R848, for incubation of 20 hrs. The cell culture supernatant SEAP reporter activity was determined using QUANTI-Blue™ kit (Cat.#: rep-qb1, Invivogen, San Diego, Ca, USA) at a wavelength of 640 nm, a detection medium that turns purple or blue in the presence of alkaline phosphatase.
HEK293-Blue-hTLR8 cells were incubated at a density of 250,000-450,000 cells/mL in a volume of 170 µL in a 96-well plate in Dulbecco's Modified Eagle's medium (DMEM) containing 4.5 g/L glucose, 50 U/mL penicillin, […], […], 2 mM L-glutamine, 10% (v/v) heat-inactivated fetal bovine serum with addition of 20 µL test compound in a serial dilution in the presence of final DMSO at 1% and 10 µL of 60uM R848 in above DMEM, perform incubation under 37 °C in a CO2 incubator for 20 hrs. Then 20 µL of the supernatant from each well was incubated with 180 µL Quanti-blue substrate solution at 37°C for 2 hrs and the absorbance was read at 620-655 nm using a spectrophotometer. The signaling pathway that TLR8 activation leads to downstream NF-κB activation has been widely accepted, and therefore similar reporter assay was modified for evaluating TLR8 antagonist.

The structures appear in SMILES notation.

Turning to `C[C@@H]1CN(c2ccc(C#N)c3ncsc23)C[C@H](CN2CCN(c3cnc4c(c3)CNC4)CC2)O1` [Example 8, 7-[(2S,6R)-2-[[4-(6,7-dihydro-5H-pyrrolo[3,4-b]pyridin-3-yl)piperazin-1-yl]methyl]-6-methyl-morpholin-4-yl]-1,3-benzothiazole-4-carbonitrile], the IC50 was less than 3 nM.

`C[C@@H]1CN(c2ccc(C#N)c3ncccc23)C[C@H](CN2CCN(c3ncc4c(n3)CNC4)CC2)O1` [Example 11, 5-[(2S,6R)-2-[[4-(6,7-dihydro-5Hpyrrolo[3,4-d]pyrimidin-2-yl)piperazin-1-yl]methyl]-6-methyl-morpholin-4-yl]quinoline-8-carbonitrile]: the IC50 is 8 nM.

In the case of `C[C@@H]1CN(c2ccc(C#N)c3ncccc23)C[C@H](CN2CCN(c3ncc4c(n3)CNCC4)CC2)O1` [Example 12, 5-[(2R,6S)-2-methyl-6-[[4-(5,6,7,8-tetrahydropyrido[3,4-d]pyrimidin-2-yl)piperazin-1-yl]methyl]morpholin-4-yl]quinoline-8-carbonitrile], the IC50 was found to be 5 nM.

`C[C@@H]1CN(c2ccc(C#N)c3ncccc23)C[C@H](CN2CCN(c3ccc4c(c3)CNC4)C(CO)C2)O1` (stereo partly drawn) [Example 13, 5-[(2S,6R)-2-[[3-(hydroxymethyl)-4-isoindolin-5-yl-piperazin-1-yl]methyl]-6-methyl-morpholin-4-yl]quinoline-8-carbonitrile]: the IC50 was found to be 22 nM.

For `C[C@@H]1CN(c2ccc(C#N)c3ncccc23)C[C@H](CN2CCN(c3ccc4c(n3)CCNC4)CC2)O1` [Example 14, 5-[(2R,6S)-2-methyl-6-[[4-(5,6,7,8-tetrahydro-1,6-naphthyridin-2-yl)piperazin-1-yl]methyl]morpholin-4-yl]quinoline-8-carbonitrile], the IC50 was found to be 4 nM.

Consider `C[C@@H]1CN(c2ccc(C#N)c3ncccc23)C[C@H](CN2CCN(c3ccc4c(c3)CNC4)CC2CO)O1` (stereo partly drawn) [Example 15, 5-[(2S,6R)-2-[[2-(hydroxymethyl)-4-isoindolin-5-yl-piperazin-1-yl]methyl]-6-methyl-morpholin-4-yl]quinoline-8-carbonitrile], for which the IC50 was determined as 11 nM.

As for `C[C@@H]1CN(c2ccc(C#N)c3ncccc23)C[C@H](CN2CCN(c3ccc4c(c3)CN(CCO)C4)CC2)O1` [Example 16, 5-[(2S,6R)-2-[[4-[2-(2-hydroxyethyl)isoindolin-5-yl]piperazin-1-yl]methyl]-6-methyl-morpholin-4-yl]quinoline-8-carbonitrile], the IC50 amounted to 10 nM.

`C[C@@H]1CN(c2ccc(C#N)c3ncccc23)C[C@H](CN2CCN(c3cnc4c(n3)CCNC4)CC2)O1` [Example 17, 5-[(2R,6S)-2-methyl-6-[[4-(5,6,7,8-tetrahydropyrido[3,4-b]pyrazin-2-yl)piperazin-1-yl]methyl]morpholin-4-yl]quinoline-8-carbonitrile]: the IC50 is 4 nM.

As for `C[C@@H]1CN(c2ccc(C#N)c3ncccc23)C[C@H](CN2CCN(c3cc4c(cn3)CNC4)CC2)O1` [Example 18, 5-[(2S,6R)-2-[[4-(2,3-dihydro-1H-pyrrolo[3,4-c]pyridin-6-yl)piperazin-1-yl]methyl]-6-methyl-morpholin-4-yl] quinoline-8-carbonitrile], the IC50 amounted to 9 nM.

Take `C[C@@H]1CN(c2ccc(C#N)c3ncccc23)C[C@H](CN2CCN(c3cc4c(cn3)CNCC4)CC2)O1` [Example 19, 5-[(2R,6S)-2-methyl-6-[[4-(5,6,7,8-tetrahydro-2,7-naphthyridin-3-yl)piperazin-1-yl]methyl]morpholin-4-yl]quinoline-8-carbonitrile]: the IC50 was determined as 4 nM.

Consider `C[C@@H]1CN(c2ccc(C#N)c3ncccc23)C[C@H](CN2CCN(c3cc4c(cn3)CCNC4)CC2)O1` [Example 20, 5-[(2R,6S)-2-methyl-6-[[4-(5,6,7,8-tetrahydro-2,6-naphthyridin-3-yl)piperazin-1-yl]methyl]morpholin-4-yl]quinoline-8-carbonitrile], for which the IC50 was 6 nM.

As to `C[C@@H]1CN(c2ccc(C#N)c3ncccc23)C[C@H](CN2CCN(c3cnc4c(c3)CNCC4)CC2)O1` [Example 21, 5-[(2R,6S)-2-methyl-6-[[4-(5,6,7,8-tetrahydro-1,6-naphthyridin-3-yl)piperazin-1-yl]methyl]morpholin-4-yl]quinoline-8-carbonitrile], the IC50 worked out at 9 nM.

Consider `C[C@@H]1CN(c2ccc(C#N)c3ncccc23)C[C@H](CN2CCN(c3ccc4c(c3)C(O)CNC4)CC2)O1` (stereo partly drawn) [Example 22, 5-[(2S,6R)-2-[[4-(4-hydroxy-1,2,3,4-tetrahydroisoquinolin-6-yl)piperazin-1-yl]methyl]-6-methyl-morpholin-4-yl]quinoline-8-carbonitrile], for which the IC50 was 19 nM.

Regarding `C[C@@H]1CN(c2ccc(C#N)c3ncccc23)C[C@H](CN2CCN(c3cnc4c(c3)CCNC4)CC2)O1` [Example 23, 5-[(2R,6S)-2-methyl-6-[[4-(5,6,7,8-tetrahydro-1,7-naphthyridin-3-yl)piperazin-1-yl]methyl]morpholin-4-yl]quinoline-8-carbonitrile], the IC50 is 11 nM.

Take `C[C@@H]1CN(c2ccc(C#N)c3ncccc23)C[C@H](CN2CCN(c3ccc4c(c3)CCNC4CO)CC2)O1` (stereo partly drawn) [Example 24, 5-[(2S,6R)-2-[[4-[1-(hydroxymethyl)-1,2,3,4-tetrahydroisoquinolin-6-yl]piperazin-1-yl]methyl]-6-methyl-morpholin-4-yl]quinoline-8-carbonitrile]: the IC50 worked out at 22 nM.

`C[C@@H]1CN(c2ccc(C#N)c3nccnc23)C[C@H](CN2CCN(c3cnc4c(c3)CNC4)CC2)O1` [Example 25, 8-[(2S,6R)-2-[[4-(6,7-dihydro-5H-pyrrolo[3,4-b]pyridin-3-yl)piperazin-1-yl]methyl]-6-methyl-morpholin-4-yl] quinoxaline-5-carbonitrile]: the IC50 was 17 nM.

`C[C@@H]1CN(c2ccc(C#N)n3ncc(F)c23)C[C@H](CN2CCN(c3cnc4c(c3)CNC4)CC2)O1` [Example 26, 4-[(2S,6R)-2-[[4-(6,7-dihydro-5H-pyrrolo[3,4-b]pyridin-3-yl)piperazin-1-yl]methyl]-6-methyl-morpholin-4-yl]-3-fluoro-pyrazolo[1,5-a]pyridine-7-carbonitrile]: the IC50 is 49 nM.

With `CC1NCc2cc(N3CCN(C[C@H]4CN(c5ccc(C#N)c6ncccc56)C[C@@H](C)O4)CC3)ccc21` (stereo partly drawn) [Example 28, 5-[(2R,6S)-2-methyl-6-[[4-(1-methylisoindolin-5-yl)piperazin-1-yl]methyl]morpholin-4-yl]quinoline-8-carbonitrile], the IC50 worked out at 13 nM.

For `C[C@@H]1CN(c2ccc(C#N)c3ncccc23)C[C@H](CN2CCN(c3ncc4c(n3)CCNC4)CC2)O1` [Example 29, 5-[(2R,6S)-2-methyl-6-[[4-(5,6,7,8-tetrahydropyrido[4,3-d]pyrimidin-2-yl)piperazin-1-yl]methyl]morpholin-4-yl]quinoline-8-carbonitrile], the IC50 was less than 3 nM.

For `C[C@@H]1CN(c2ccc(C#N)c3ncccc23)C[C@H](CN2CCN(c3ccc4c(n3)CNC4)CC2)O1` [Example 30, 5-[(2S,6R)-2-[[4-(6,7-dihydro-5H-pyrrolo[3,4-b]pyridin-2-yl)piperazin-1-yl]methyl]-6-methyl-morpholin-4-yl] quinoline-8-carbonitrile], the IC50 was found to be 7 nM.
